Data taken from patent US20250073284A1, “WEISSELLA CONFUSA, CULTURE METHOD THEREFOR AND USE THEREOF” (SHANGHAI SINGEN PET NUTRITION CO., LTD., priority 2021, published 2025).
Converted amounts (≈) assume the structure as drawn.

Columns and labels:
[1] = system: strain WSG1; assay: Susceptibility evaluation, K-B method (zones of inhibition of antibiotics); assay type: cell-based, Weissella confusa; conditions: antibiotic against strain WSG1, K-B method
[2] = system: strain WSG1; assay: Susceptibility evaluation, MIC method; assay type: cell-based; conditions: Weissella confusa; marbofloxacin against strain WSG1

Row | Compound | Diameter of zone of inhibition [1] | MIC [2]
1 | CC1(C)S[C@@H]2[C@H](NC(=O)[C@H](N)c3ccc(O)cc3)C(=O)N2[C@H]1C(=O)O [Amoxicillin, amoxicillin] | 15.0 mm | –
2 | CC[C@H]1OC(=O)[C@H](C)[C@@H](O[C@H]2C[C@@](C)(OC)[C@@H](O)[C@H](C)O2)[C@H](C)[C@@H](O[C@@H]2O[C@H](C)C[C@H](N(C)C)[C@H]2O)[C@](C)(O)C[C@@H](C)CN(C)[C@H](C)[C@@H](O)[C@]1(C)O [Azithromycin, azithromycin] | 15.5 mm | –
3 | CC1=C(C(=O)O)N2C(=O)[C@@H](NC(=O)[C@H](N)c3ccccc3)[C@H]2SC1 [Cefalexin, cefalexin] | 15.5 mm | –
4 | Cc1nnc(SCC2=C(C(=O)O)N3C(=O)[C@@H](NC(=O)Cn4cnnn4)[C@H]3SC2)s1 [Cefazolin, cefazolin] | 19.5 mm | –
5 | CC1=C(C(=O)O)N2C(=O)[C@@H](NC(=O)[C@H](N)C3=CCC=CC3)[C@H]2SC1 [Cefradine, cefradine] | 17.5 mm | –
6 | CC(=O)OCC1=C(C(=O)O)N2C(=O)[C@@H](NC(=O)Cc3cccs3)[C@H]2SC1 [Cephalothin, cephalothin] | 23.5 mm | –
7 | O=C(N[C@H](CO)[C@H](O)c1ccc([N+](=O)[O-])cc1)C(Cl)Cl [Chloramphenicol, chloramphenicol] | 23.5 mm | –
8 | CCC[C@@H]1C[C@@H](C(=O)N[C@@H]([C@H]2O[C@H](SC)[C@H](O)[C@@H](O)[C@H]2O)[C@H](C)Cl)N(C)C1 [Clindamycin, clindamycin] | 23.0 mm | –
9 | CCN1CCN(c2cc3c(cc2F)c(=O)c(C(=O)O)cn3C2CC2)CC1 [Enrofloxacin, enrofloxacin] | 13.5 mm | –
10 | Cc1onc(-c2ccccc2)c1C(=O)N[C@@H]1C(=O)N2[C@@H]1SC(C)(C)[C@@H]2C(=O)O [Oxacillin, oxacillin] | 7.5 mm | –
11 | CN(C)[C@@H]1C(O)=C(C(N)=O)C(=O)[C@@]2(O)C(O)=C3C(=O)c4c(O)cccc4[C@@](C)(O)[C@H]3C[C@@H]12 [Tetracycline, tetracycline] | 19.5 mm | –
12 | CN[C@H](CC(C)C)C(=O)N[C@H]1C(=O)N[C@@H](CC(N)=O)C(=O)N[C@H]2C(=O)N[C@H]3C(=O)N[C@H](C(=O)N[C@H](C(=O)O)c4cc(O)cc(O)c4-c4cc3ccc4O)[C@H](O)c3ccc(c(Cl)c3)Oc3cc2cc(c3O[C@@H]2O[C@H](CO)[C@@H](O)[C@H](O)[C@H]2O[C@H]2C[C@](C)(N)[C@H](O)[C@H](C)O2)Oc2ccc(cc2Cl)[C@H]1O [Vancomycin, vancomycin] | 0.0 mm | –
13 | CN1CCN(c2c(F)cc3c(=O)c(C(=O)O)cn4c3c2OCN4C)CC1 [marbofloxacin] | – | 1020 mg/L (≈ 2830 µM)
14 | penicillin | 23.5 mm | –
